Laboratory results as given in patent US4876260A, “Oxathiolanes” (State of Israel, Israel Institute of Biological Research, priority 1988, dated 1989).

Key:
[1] = biological target: T1, M1 muscarinic receptors (3H-PZ sites, frontal cortex) (Rattus norvegicus, UniProt P08482); assay: Displacement of 3H-PZ from rat frontal cortex homogenate; type: binding; conditions: for Ki: (a') frontal cortex, read-out: Ki(3H-PZ); for a':c', Ki(3H-PZ):Ki(3H-CD): (g) frontal cortex ratio
T1 sequence (P08482 1-460): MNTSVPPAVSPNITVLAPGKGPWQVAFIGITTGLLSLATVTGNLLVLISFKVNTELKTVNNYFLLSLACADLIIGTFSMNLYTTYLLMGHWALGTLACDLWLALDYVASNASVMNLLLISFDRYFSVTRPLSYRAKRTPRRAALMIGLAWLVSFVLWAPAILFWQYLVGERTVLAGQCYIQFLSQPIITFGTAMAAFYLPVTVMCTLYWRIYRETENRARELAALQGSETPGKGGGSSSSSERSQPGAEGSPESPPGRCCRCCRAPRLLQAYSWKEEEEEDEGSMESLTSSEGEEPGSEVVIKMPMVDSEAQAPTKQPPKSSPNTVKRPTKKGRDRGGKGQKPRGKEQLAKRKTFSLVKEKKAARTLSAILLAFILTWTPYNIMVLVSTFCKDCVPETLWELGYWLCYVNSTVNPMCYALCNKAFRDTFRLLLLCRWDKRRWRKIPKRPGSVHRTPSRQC

[2] = biological target: muscarinic receptors (3H-CD sites, frontal cortex); assay: Displacement of 3H-CD from rat frontal cortex homogenate; type: binding; conditions: (c') frontal cortex
[3] = biological target: muscarinic receptors (3H-QNB sites, frontal cortex); type: binding, rat; conditions: (b') frontal cortex
[4] = biological target: T2, muscarinic receptors (3H-QNB sites, cerebellum, mainly M2) (Rattus norvegicus, UniProt P10980); assay: biochemical; type: binding; conditions: Ki(3H-QNB), (b") cerebellum
T2 sequence (P10980 1-466): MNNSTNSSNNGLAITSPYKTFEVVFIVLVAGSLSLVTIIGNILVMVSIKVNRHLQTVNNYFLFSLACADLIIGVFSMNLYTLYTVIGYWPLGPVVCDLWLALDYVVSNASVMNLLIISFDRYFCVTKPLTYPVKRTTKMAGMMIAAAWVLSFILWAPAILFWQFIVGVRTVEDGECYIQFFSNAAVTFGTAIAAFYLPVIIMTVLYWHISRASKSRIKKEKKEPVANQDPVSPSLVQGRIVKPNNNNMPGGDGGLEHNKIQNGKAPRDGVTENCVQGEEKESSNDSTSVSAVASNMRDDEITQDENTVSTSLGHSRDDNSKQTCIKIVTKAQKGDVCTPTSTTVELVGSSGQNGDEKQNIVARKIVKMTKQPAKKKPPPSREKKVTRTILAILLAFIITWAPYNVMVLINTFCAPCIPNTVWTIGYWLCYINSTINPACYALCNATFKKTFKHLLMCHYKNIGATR

[5] = tested on: muscarinic receptors (3H-QNB sites, cerebellum, mainly M2); assay: biochemical; type: binding, rat; conditions: for b':b": (k) Ki(3H-QNB) frontal cortex : Ki(3H-QNB) cerebellum
[6] = biological target: T3, M1 muscarinic receptors (3H-PZ sites, forebrain) (Rattus norvegicus, UniProt P08482); assay: Displacement of 3H-Pirenzepine (3H-PZ, selective M1 antagonist) from rat forebrain homogenate; type: binding; conditions: for M1 selectivity (in words): from Tables 2A, 2B, 2C
T3 sequence (P08482 1-460): T1 sequence (P08482 1-460)

mice = assay: Pharmacodynamic profile and general toxicity in mice; type: in vivo, CD-1 mice
Experimental: Male white mice of the CD-1 strain supplied by Charles River Ltd. (U.K.) were used throughout. An acclimatization period of at least three days was allowed between arrival and commencement of a particular experimental series. The animals were fed a complete commercial pelleted rodent diet without restriction during the acclimatization and study periods. Animals had free access to tap water. Body weights during testing were mostly within 20-28 g.
Test materials were prepared as aqueous solutions in physiological saline (0.9% NaCl), up to a maximum concentration of 10 mg./ml. All materials were freshly prepared on the morning prior to each dosing session. Dosages were expressed gravimetrically (mg./kg.), in terms of the materials as received.
Groups of mice (mostly n=5) received either i.v. or oral administration of the test materials at various dose levels. Dose volumes appropriate for respective dose levels selected, were determined for each animal according to body weights on the day of dosing. Any behavioral changes occurring during one to two hours after administration, as well as incidence of death up to 24 hours after dosing were recorded.

[7] = tested on: AF64A-induced cognitive impairment (passive avoidance); assay: Step-through passive avoidance in AF64A- and saline-injected rats; type: in vivo; conditions: for Retention Latency: 72 hour retention test
From the text: Development of potential drugs for the treatment of Alzheimer's disease requires their evaluation in appropriate animal models for this disease. […] This hippocampal cholinergic deficiency is accompanied by statistically significant cognitive impairments (inter alia) in step-through passive avoidance (PA). The present PA experiment investigated the possibility of reversing such impairments by administration of (+)-III (AF122B).
[…] post-operation, the AF64A and saline-injected groups were randomly subdivided into two treatment sub-groups. Sub-group 1 was treated with 1 mg./kg. i.p. (+)-III (AF122B), while sub-group 2 was treated with […]. i.p. saline. The drug or saline were administered immediately after shock.

[8] = tested on: isolated guinea-pig ileum; assay: Contraction of isolated guinea-pig ileum preparation
From the text: (§1) From this Table, it appears that compounds (III) were not so effective in contracting the guinea pig ileum preparation.

[9] = biological target: muscarinic receptors (3H-QNB sites, M1 and M2, forebrain); type: binding, rat; conditions: (b) forebrain
[10] = tested on: ACh-induced contractions of guinea-pig ileum; assay: Blocking of ACh-induced contractions of isolated guinea-pig ileum; conditions: listed as AF122B
From the text: as §1

[11] = AF64A-injected rats, 1 mg./kg. i.p.
[12] = saline-injected rats, 1 mg./kg. i.p.
[13] = 10 mg/kg i.v., listed as (+)-III AF122B
[14] = 25 mg/kg i.v., listed as (+)-III AF122B
[15] = 50 mg/kg i.v., listed as (+)-III AF122B
[16] = 100 mg/kg i.v., immed = immediately
[17] = 200 mg/kg p.o., listed as (+)-III AF122B
[18] = 25 mg/kg i.v., listed as (±)-III AF122B
[19] = 100 mg/kg p.o., listed as (±)-III AF122B
[20] = 200 mg/kg p.o., listed as (±)-III AF122B

## C[C@H]1O[C@@]2(CN3CCC2CC3)CS1(=O)=O (relative stereo) [compound 14, cis-2-methylspiro(1,3-oxathiolan-5,3')quinuclidine-3,3-dioxide]
[1]
  a':b', Ki(3H-PZ):Ki(3H-QNB): 0.18
  Ki: 5.5 ± 0.43 µM
  a':c', Ki(3H-PZ):Ki(3H-CD): 1.8
[2]
  Ki: 3.06 ± 2 µM
[3]
  Ki: 34.1 ± 3 µM
[4]
  Ki: 44.1 ± 6.5 µM
[5]; (i) Ki(3H-PZ) frontal cortex : Ki(3H-QNB) cerebellum
  a':b": 2.6
[5]
  b':b": 0.77
[6]; compared with (±)-cis-(II)
  potency (in words): losing some of its potency
[6]
  M1 selectivity (in words): high M1 selectivity
[6]; listed as (±)-cis-(II)-sulfone
  M1 selectivity (in words): still preserved an outstanding profile as judged by its M1 selectivity (ratio a':c')
mice; 50 mg/kg i.v.
  Analgesia (nonresponsiveness to tail pinch), No. affected/total treated: 3/5
  Mortality, No. dead/total treated: 0/5
mice; 100 mg/kg i.v.
  Analgesia (nonresponsiveness to tail pinch), No. affected/total treated: 5/5
  Mortality, No. dead/total treated: 0/5
mice; 100 mg/kg p.o.
  Mortality, No. dead/total treated: 0/5
mice; 200 mg/kg p.o.
  Analgesia (nonresponsiveness to tail pinch), No. affected/total treated: 5/5
  Mortality, No. dead/total treated: 0/5

## CC1OCC2(CN3CCC2CC3)S1 (single isomer, unassigned) [compound 10, 2-methylspiro(1,3-oxathiolan-4,3')quinuclidine]
[7]; [11]
  Passive avoidance retention (in words): improved the passive avoidance retention of AF64A-injected rats
  Retention Latency: 549.5 ± 29.1 s
[7]; AF64A-injected rats, 1 mg./kg. i.p., p<0.01
  Effect on retention latency (in words): prolonged the retention latency of AF64A-injected rats
[7]; between any of the groups
  Initial latency (training) (in words): No significant differences were found during training
[7]; [12]
  Effect on retention latency (in words): no significant effect on the retention latency of saline-injected rats
  Retention Latency: 552 ± 33.7 s
[1]
  Ki: 7.4 µM
[8]; listed as (+)-AF122B
  Contraction of guinea pig ileum (in words): active enantiomer
mice; 10 mg/kg i.v.
  Convulsive seizures, No. affected/total treated: 2/8
  Mortality, time after drug administration: 5 s
  Respiratory distress, No. affected/total treated: 1/8
  Tremors, No. affected/total treated: 2/8
mice; [13]
  Analgesia (nonresponsiveness to tail pinch), No. affected/total treated: 5/8
  Mortality, No. dead/total treated: 1/8
mice; [14]
  Convulsive seizures, No. affected/total treated: 5/5
  Mortality, No. dead/total treated: 4/5
  Mortality, time after drug administration: 30 s
  Respiratory distress, No. affected/total treated: 1/5
  Tremors, No. affected/total treated: 4/5
mice; [15]
  Mortality, No. dead/total treated: 2/2
  Mortality, time after drug administration: 5 s
mice; [16]
  Mortality, time after drug administration: immed
mice; 100 mg/kg i.v., listed as (+)-III AF122B
  Mortality, No. dead/total treated: 2/2
mice; 100 mg/kg p.o.
  Analgesia (nonresponsiveness to tail pinch), No. affected/total treated: 5/5
  Respiratory distress, No. affected/total treated: 1/5
  Vocalization, No. affected/total treated: 1/4
mice; 100 mg/kg p.o., listed as (+)-III AF122B
  Mortality, No. dead/total treated: 0/5
mice; 200 mg/kg p.o.
  Tremors, No. affected/total treated: 3/5
mice; [17]
  Altered motor activity: a+h
  Analgesia (nonresponsiveness to tail pinch), No. affected/total treated: 5/5
  Convulsive seizures, No. affected/total treated: 5/5
  Mortality, No. dead/total treated: 0/5
  Respiratory distress, No. affected/total treated: 4/5
  Vocalization, No. affected/total treated: 2/5

## CC1OCC2(CN3CCC2CC3)S1 (stereo not shown) [compound 7, 2-methylspiro(1,3-oxathiolan-4,3')quinuclidine]
[6]
  a:b, Ki(3H-PZ):Ki(3H-QNB): 0.17
[6]; (a) forebrain
  Ki: 1.22 ± 0.4 µM
[6]; listed as Compound (III)
  M1 selectivity (in words): M1 selectivity is preserved even in the mixture of the geometrical isomers
[9]
  Ki: 7 ± 0.5 µM

## CC1OCC2(CN3CCC2CC3)S1 (stereo not shown) [compound 8, 2-methylspiro(1,3-oxathiolan-4,3')quinuclidine]
[10]
  Effect on ACh-induced contractions (in words): consistently blocked ACh-induced contractions
[1]
  a':b', Ki(3H-PZ):Ki(3H-QNB): 0.11
  Ki: 1.66 ± 0.24 µM
  a':c', Ki(3H-PZ):Ki(3H-CD): 0.7
[2]
  Ki: 2.3 µM
[3]
  Ki: 15.3 ± 2.2 µM
[4]
  Ki: 21.1 ± 7.6 µM
[5]
  b':b": 0.73
[8]
  Desensitization: desensitization that was observed
[8]; listed as AF122B
  Blocking of the contractions by atropine (remarks): the contractions were only partially blocked by atropine
  Contraction of guinea pig ileum (in words): contracted the ileum muscle
mice; 10 mg/kg i.v., listed as (±)-III AF122B
  Mortality, No. dead/total treated: 0/3
mice; [18]
  Analgesia (nonresponsiveness to tail pinch), No. affected/total treated: 2/5
  Convulsive seizures, No. affected/total treated: 5/5
  Exophthalmus, No. affected/total treated: 2/5
  Mortality, No. dead/total treated: 3/5
  Respiratory distress, No. affected/total treated: 2/5
  Tremors, No. affected/total treated: 5/5
mice; 50 mg/kg i.v.
  Convulsive seizures, No. affected/total treated: 2/2
  Mortality, No. dead/total treated: 2/2
  Mortality, time after drug administration: 5 s
  Tremors, No. affected/total treated: 2/2
mice; 50 mg/kg p.o.
  Mortality, No. dead/total treated: 0/5
mice; 100 mg/kg i.v.
  Mortality, No. dead/total treated: 2/2
mice; [16]
  Mortality, time after drug administration: immed
mice; 100 mg/kg p.o.
  Analgesia (nonresponsiveness to tail pinch), No. affected/total treated: 4/4
  Convulsive seizures, No. affected/total treated: 4/4
  Vocalization, No. affected/total treated: 1/4
mice; [19]
  Mortality, No. dead/total treated: 1/4
  Tremors, No. affected/total treated: 4/4
mice; 100 mg/kg p.o., m = minutes
  Mortality, time after drug administration: 15 m
mice; 200 mg/kg p.o.
  Analgesia (nonresponsiveness to tail pinch), No. affected/total treated: 4/4
  Respiratory distress, No. affected/total treated: 4/4
  Vocalization, No. affected/total treated: 2/4
mice; [20]
  Convulsive seizures, No. affected/total treated: 4/4
  Mortality, No. dead/total treated: 4/4
  Tremors, No. affected/total treated: 4/4
mice; 200 mg/kg p.o., m = minutes
  Mortality, time after drug administration: 15 m
